The values below come from paper PMC9582434, “Ryanodine receptor-active non-dioxin-like polychlorinated biphenyls cause neurobehavioral deficits in larval zebrafish” (Frontiers in Toxicology, 2022).

Series [1] is described as follows: PCB body burden in larvae at 5 dpf by gas chromatography. In kind it is in vivo, zebrafish. The settings on record: for % uptake (measured uptake/theoretical uptake × 100): averaged across 0.1, 1 and 10 µM, larvae at 5 dpf; for larval body burden relative to the other tested PCBs: exposure 6 hpf to 5 dpf. As to the method: PCB body burden was assessed at 5 dpf by pressurized liquid extraction Dionex ASE200 system (Thermo Scientific, Sunnyvale, CA, United States) ([Wu et al., 2015]). Briefly, zebrafish larvae samples (n = 36–51 per sample) were mixed with diatomaceous earth (2 g) and placed in an extraction cell (33 ml) containing Florisil (60–100 mesh, 12 g, Fisher Scientific, Fair Lawn, NJ, United States). PCB 117 (100 ng) was added to each sample as surrogate recovery standard, and the cells were extracted with hexane-acetone (1:1, v/v) at 100°C and 1,500 psi (10 MPa) with preheat equilibration for 6 min, 35% of cell flush volume and 1 static cycle of 5 min. Method blanks containing only Florisil and diatomaceous earth and sample blanks with naïve (unexposed) and/or DMSO-exposed zebrafish larvae were extracted in parallel with each sample set. The extracts were concentrated to approximately 0.75 ml using a Turbo Vap II (Biotage, Charlotte, NC, United States) and transferred to glass tubes. Samples were further cleaned up, as described previously, to remove sulfur and other impurities ([Kania-Korwel et al., 2007]). All samples were spiked with PCB 204 (100 ng) as internal standard (volume corrector) prior to gas chromatographic analysis.
Analysis of PCBs was performed in the splitless mode on an Agilent 7890 gas chromatograph equipped with a ^63Ni micro electron capture detector (µECD) and a SPB-1 capillary column (length, 60 m; inner diameter, 250 μm; and 0.25 µm film thickness; Supelco, St. Louis, MO, United States) ([Wu et al., 2013]). The following temperature program was used based on a published method ([Kania-Korwel et al., 2011]): hold at 80°C for 1 min, 20°C/min to 215°C, then 0.1°C/min to 219.5°C, and 20°C/min to 280°C, then hold at 280°C for 3 min. A constant helium flow rate of 1 ml/min was used for all analyses. The injector and detector temperatures were 250°C and 300°C, respectively. The ^63Ni-μECD used for the PCB analysis was linear up to concentrations of 1,000 ng/ml for all analytes investigated (R ^2 > 0.999). The recovery of PCB 117 was 83 ± 7% (range: 71–97%). A detailed summary of the limits of detection, limits of quantification, and background levels of the analyzed PCBs is presented in Supplementary Table S1.
The neurotoxic potential of the congeners tested in this study were ranked based on the three endpoints measured in this study: RYR binding, behavior, and body burden. Congeners were ranked relative to each other for each individual endpoint from 1 (highest) to 6 (lowest), and then the three scores for each congener averaged to obtain an overall relative ranking for each congener. Ranking for RYR activation was based on EC2X values and their relative comparisons. Behavior ranking represents the total change from control for each congener across all epochs (L1, D1, L2, and D2) and all days (3, 4, and 5 dpf) tested. AUC values were normalized to the appropriate DMSO control (AUC value/DMSO). Each value was then subtracted from 1 to determine the deviation from the control values [1 − (AUC value/DMSO)]. Absolute values were combined for all concentrations of each congener across all time points (epochs and testing days). PCB body burden was ranked as the percentage uptake using the following calculation: (uptake/total PCB) × 100, where, the uptake values were the measured PCB levels in the samples, and the total PCB values were calculated using the exposure concentration (0.1, 1, or 10 μM) and volume (200 μl). The resulting values were averaged across the three assayed concentrations and rounded to the closest integer to obtain the final ranking order.

Series [2] relates to RYR. Also on record: method as in Pessah et al., 2006; Holland et al., 2017a. The note with it: ref Pessah et al., 2006; Holland et al., 2017a; cited from earlier work.
The nature of series [3]: Enantioselective gas chromatographic analysis of PCB residues in larvae. The note with it: residues in exposed larvae; no significant atropisomeric enrichment. In kind it is in vivo, zebrafish. As to the method:
The enantioselective analysis of PCB 84 was performed on a 6890 Agilent gas chromatograph equipped with a ^63Ni-µECD detector and CP-Chiralsil-Dex CB capillary column with cyclodextrin directly bonded to dimethylpolysiloxane (25 m length, 0.25 mm inner diameter, 0.25 µm film thickness; Varian, Palo Alto, CA, United States). The temperature program was as follows ([Kania-Korwel et al., 2006]): starting temperature 50°C, hold for 1 min, 10°C/min to 140°C for 100 min, then 10°C/min to 200°C for 5 min. The enantioselective analysis of PCB 95 was performed on a 7890 Agilent gas chromatograph equipped with a ^63Ni-µECD detector and Chiraldex B-DM (BDM) capillary column (length, 30 m × inner diameter, 250 μm × 0.12 µm film thickness, Supelco; St. Louis, MO, United States). The following temperature program was used ([Uwimana et al., 2016]): starting temperature 50°C for 1 min, 10°C/min to 160°C for 90 min, then 10°C/min to 200°C for 10 min. For both instruments, the injector was operated in the splitless mode at 250°C, and the detector temperature was 250°C. […] Enantiomer fractions (EF) were calculated with the drop valley method ([Asher et al., 2009]; [Uwimana et al., 2016]) as EF = Area E1/(Area E1 + Area E2), were Area E1 and Area E2 denote the peak area of the first and second eluting atropisomer, respectively. […]

The subject of series [4] is larval zebrafish. The note with it: 2020, cited from earlier work.

With `Clc1ccc(-c2ccc(Cl)cc2Cl)cc1` [PCB 28], the “% uptake (measured uptake/theoretical uptake × 100)” value in series [1] is listed as 4.5%. Further, in series [2], the “in vitro potency at the RYR (in words)” value was “negligible”.
As to `Clc1ccc(-c2ccc(Cl)c(Cl)c2)c(Cl)c1` [PCB 66], in series [1], the “% uptake (measured uptake/theoretical uptake × 100)” value is on record as 5.6%. Besides, the “in vitro potency at the RYR (in words)” value in series [2] is on record as “negligible”.
Turning to `Clc1cccc(-c2c(Cl)ccc(Cl)c2Cl)c1Cl` [PCB 84], in series [3], the “average EF (enantiomer fraction) values” is listed as 0.50 ± 0.01. Besides, in series [1], the “% uptake (measured uptake/theoretical uptake × 100)” value is listed as 9.2%. For the same compound, the “in vitro potency at the RYR (in words)” value in series [2] was “potent”.
Take `Clc1ccc(Cl)c(-c2c(Cl)ccc(Cl)c2Cl)c1` [PCB 95, 2,2',3,5',6-pentachlorobiphenyl]: the “average EF (enantiomer fraction) values” in series [3] came to 0.50 ± 0.01. For the same compound, in series [4] (exposure commenced shortly after fertilization, ref Ranasinghe et al.), the “malformations after developmental exposure” value was “caused malformations”. The “% uptake (measured uptake/theoretical uptake × 100)” value in series [1] is given as 7.4%. Further, the “in vitro potency at the RYR (in words)” value in series [2] was “potent”.
Turning to `Clc1cc(Cl)c(-c2ccc(Cl)c(Cl)c2Cl)cc1Cl` [PCB 138], in series [1], the “% uptake (measured uptake/theoretical uptake × 100)” value worked out at 13.8% and the “larval body burden relative to the other tested PCBs” value is recorded as “highest”. Also, in series [2], the “in vitro potency at the RYR (in words)” value was “moderate”.
Consider `Clc1cc(Cl)c(-c2cc(Cl)c(Cl)cc2Cl)cc1Cl` [PCB 153, 2,2',4,4',5,5'-Hexachlorobiphenyl], for which the malformations or mortality entry in series [4] (larval zebrafish younger than 7 dpf, static exposure, up to 10 μM, ref Aluru et al.) is recorded as “no malformations or mortality”. Moreover, in series [1], the “% uptake (measured uptake/theoretical uptake × 100)” value is 1.4% and the “larval body burden relative to the other tested PCBs” value is recorded as “lowest”. Moreover, the “in vitro potency at the RYR (in words)” value in series [2] is recorded as “moderate”.
